Assay results taken from US10508085B2, “Compounds and methods for IDO and TDO modulation, and indications therefor” (Plexxikon Inc., priority 2016, dated 2019).
Where two headings read alike, the source gives them in different places.

How the values were obtained:
[1] = target: T1, Human Indoleamine 2,3-dioxygenase (IDO) (Homo sapiens, UniProt P14902); experiment: Human IDO enzymatic assay (kynurenine level); format: biochemical
T1 construct: His tag (N); made in house; host or cells: E. coli
In short: (§1)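 Kynurenine formed is measured after TCA quench and 50 °C hydrolysis, with % inhibition against full-reaction and no-enzyme controls (5% DMSO). IDO: 6 nM enzyme, 10 μM L-Trp, 5 μM methylene blue, 20 min; TDO: 1 nM, 350 μM L-Trp, 0.4 μM methylene blue, 70 min; both pH 6.5, room temp, E. coli-expressed His-tagged.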

[2] = target: T2, Human Tryptophan 2,3-dioxygenase (TDO) (Homo sapiens, UniProt P48775); experiment: Human TDO enzymatic assay (kynurenine level); format: biochemical
T2 construct: His tag (N); made in house; host or cells: E. coli
T2 sequence (P48775 whole entry): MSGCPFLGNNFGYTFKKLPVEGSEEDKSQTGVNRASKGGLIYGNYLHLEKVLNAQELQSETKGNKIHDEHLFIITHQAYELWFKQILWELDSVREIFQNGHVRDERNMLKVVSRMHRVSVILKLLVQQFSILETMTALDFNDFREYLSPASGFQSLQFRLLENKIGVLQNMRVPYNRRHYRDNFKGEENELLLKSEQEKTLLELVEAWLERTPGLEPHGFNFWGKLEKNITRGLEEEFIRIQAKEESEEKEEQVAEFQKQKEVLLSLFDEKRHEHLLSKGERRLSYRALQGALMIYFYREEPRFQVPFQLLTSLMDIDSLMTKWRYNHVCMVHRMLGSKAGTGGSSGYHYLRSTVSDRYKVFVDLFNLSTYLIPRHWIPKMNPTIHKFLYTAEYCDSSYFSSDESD
In short: as §1

[3] = target: T3, human IDO (IDO1-expressing HEK293 cells) (Homo sapiens, UniProt P14902); experiment: Cell based kynurenine assay, IDO1-expressing HEK293 cell clones
T3 construct: expressed in transfected cells
T3 sequence (P14902 whole entry): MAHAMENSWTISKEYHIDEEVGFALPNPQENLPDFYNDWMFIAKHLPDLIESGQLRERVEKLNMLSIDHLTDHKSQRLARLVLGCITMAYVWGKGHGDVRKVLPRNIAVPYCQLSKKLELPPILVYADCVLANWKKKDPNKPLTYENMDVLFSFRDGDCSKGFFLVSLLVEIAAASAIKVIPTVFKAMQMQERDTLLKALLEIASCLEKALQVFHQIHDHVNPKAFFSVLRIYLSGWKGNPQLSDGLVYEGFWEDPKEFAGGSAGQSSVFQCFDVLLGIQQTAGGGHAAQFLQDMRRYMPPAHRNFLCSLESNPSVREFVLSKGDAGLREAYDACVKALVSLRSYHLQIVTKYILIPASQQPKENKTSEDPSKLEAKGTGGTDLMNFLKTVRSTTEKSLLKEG
In short: (§2)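 Supernatant kynurenine was measured after 24 h exposure of stably transfected HEK293 cells (human IDO1 or TDO, 2.5×10^4/well) to serially diluted compound. Percent inhibition used 0.2% DMSO cell wells as high and media-only wells as low controls; IC50 fitted by nonlinear regression.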

[4] = target: T4, human TDO (TDO-expressing HEK293 cells) (Homo sapiens, UniProt P48775); experiment: Cell based kynurenine assay, TDO-expressing HEK293 cell clones
T4 construct: expressed in transfected cells
T4 sequence (P48775 whole entry): as the sequence (P48775 whole entry) above
In short: as §2

[5] = 6 nM IDO, 10 μM L-Trp, geometric mean, read-out: IDO1 GMean: IC50 (μM) (Biochemical Assay)
[6] = 1 nM TDO, 350 μM L-Trp, geometric mean, read-out: TDO GMean: IC50 (μM) (Biochemical Assay)
[7] = IDO1-expressing HEK293 cells, 24 hours, geometric mean, read-out: HEK293 IDO1 Kynurenine GMean IC50 (μM) (Cellular Assay)
[8] = TDO-expressing HEK293 cells, 24 hours, geometric mean, read-out: HEK293 TDO Kynurenine GMean IC50 (μM) (Cellular Assay)
[9] = IDO1-expressing HEK293 cells, 24 hours incubation, geometric mean, read-out: HEK293 IDO1 Kynurenine GMean IC50 (μM) (Cellular Assay)
[10] = TDO-expressing HEK293 cells, 24 hours incubation, geometric mean, read-out: HEK293 TDO Kynurenine GMean IC50 (μM) (Cellular Assay)

T1 sequence (P14902 whole entry): as the sequence (P14902 whole entry) above

Row | SMILES | IC50 [1, 5] [µM] | IC50 [2, 6] [µM] | IC50 [3, 7] [µM] | IC50 [4, 8] [µM] | IC50 [3, 9] [µM] | IC50 [4, 10] [µM] | IC50 ([1]; biochemical assay, comparative examples, 4,6 versus 5,7 indazole, read-out: IDO1) [µM] | IC50 ([2]; biochemical assay, comparative examples, 4,6 versus 5,7 indazole, read-out: TDO) [µM] | IC50 ([3]; cellular assay, HEK293, 24 hours, comparative examples, read-out: hIDO1) [µM] | IC50 ([4]; cellular assay, HEK293, 24 hours, comparative examples, read-out: hTDO) [µM]
1 | CC(C)C(=O)N1CCC(C(C)(C)C(O)c2cc(Cl)cc3cn[nH]c23)CC1 (stereo not shown) [Compound P-0413, 1-(4-(1-(5-chloro-1H-indazol-7-yl)-1-hydroxy-2-methylpropan-2-yl)piperidin-1-yl)-2-methylpropan-1-one] | 0.0001 to 10 | 0.0001 to 10 | 0.0001 to 10 | 0.0001 to 10 |  |  |  |  |  | 
2 | CC1(C(O)c2cc(Cl)cc3cn[nH]c23)COC1 (stereo not shown) [Compound P-0211, (5-chloro-1H-indazol-7-yl)(3-methyloxetan-3-yl)methanol] | 0.0001 to 10 | 0.0001 to 10 |  |  | 0.0001 to 10 | 0.0001 to 10 |  |  |  | 
3 | CC(C)NC(=O)N1CCC(C(C)(C)C(O)c2cc(Cl)cc3cn[nH]c23)CC1 (stereo not shown) [Compound P-0315, 4-(1-(5-chloro-1H-indazol-7-yl)-1-hydroxy-2-methylpropan-2-yl)-N-isopropylpiperidine-1-carboxamide] | 0.0001 to 10 | 0.0001 to 10 |  |  | 0.0001 to 10 | 0.0001 to 10 |  |  |  | 
4 | CCC(=O)N1CCC(C(F)(F)C(O)c2c(F)c(Cl)cc3cn[nH]c23)CC1 (stereo not shown) [Compound P-0374, 1-(4-(2-(5-chloro-6-fluoro-1H-indazol-7-yl)-1,1-difluoro-2-hydroxyethyl)piperidin-1-yl) propan-1-one] | 0.0001 to 10 | 0.0001 to 10 |  |  | 0.0001 to 10 | 0.0001 to 10 |  |  |  | 
5 | CN(C)c1ccc(NC(=O)N2CCC(C(C)(C)C(O)c3cc(Cl)cc4cn[nH]c34)CC2)cc1 (stereo not shown) [Compound P-0402, 4-(1-(5-chloro-1H-indazol-7-yl)-1-hydroxy-2-methylpropan-2-yl)-N-(4-(dimethylamino)phenyl)piperidine-1-carboxamide] | 0.0001 to 10 | 0.0001 to 10 |  |  | 0.0001 to 10 | 0.0001 to 10 |  |  |  | 
6 | CNC(=O)N1CCC(C(F)(F)C(O)c2cc(Cl)cc3cn[nH]c23)CC1 (stereo not shown) [Compound P-0142, 4-(2-(5-chloro-1H-indazol-7-yl)-1,1-difluoro-hydroxyethyl)-N-methylpiperidine-1-carboxamide] | 0.0001 to 10 | 0.0001 to 10 |  |  | 0.0001 to 10 | 0.0001 to 10 |  |  |  | 
7 | CC(C)(C1CCN(C(=O)Nc2ccc(F)cc2)CC1)C(O)c1cc(Cl)cc2cn[nH]c12 (stereo not shown) [Compound P-0167, 4-(1-(5-chloro-1H-indazol-7-yl)-1-hydroxy-2-methylpropan-2-yl)-N-(4-fluorophenyl)piperidine-1-carboxamide] | 0.0001 to 10 | 0.0001 to 10 |  |  | 0.0001 to 10 | 0.0001 to 10 |  |  |  | 
8 | OC(c1cccc2cncn12)C1CC2CCC1C2 (stereo not shown) [Compound P-0059, bicyclo[2.2.1]heptan-2-yl(imidazo[1,5-a]pyridin-5-yl)methanol] | 0.0001 to 10 | 0.0001 to 10 |  |  | 0.0001 to 10 | > 10 |  |  |  | 
9 | OC1(c2cc(Cl)cc3[nH]ncc23)CC2(CCC2)C1 [Compound P-0336, 2-(6-chloro-1H-indazol-4-yl)spiro[3.3] heptan-2-ol] | 10 to 100 | 0.0001 to 10 |  |  | > 10 | 0.0001 to 10 |  |  |  | 
10 | CC(C)(C1CCN(C(=O)NCC(F)(F)F)CC1)C(O)c1cc(Cl)cc2cn[nH]c12 (stereo not shown) [Compound P-0175, 4-(1-(5-chloro-1H-indazol-7-yl)-1-hydroxy-2-methylpropan-2-yl)-N-(2,2,2-trifluoroethyl)piperidine-1-carboxamide] | 0.0001 to 10 | 0.0001 to 10 |  |  | 0.0001 to 10 | 0.0001 to 10 |  |  |  | 
11 | NC(=O)N1CCC(C2(C(O)c3c(F)c(Cl)cc4cn[nH]c34)CC2)CC1 (stereo not shown) [Compound P-0161, 4-(1-((5-chloro-6-fluoro-1H-indazol-7-yl)(hydroxy)methyl)cyclopropyl)piperidine-1-carboxamide] | 0.0001 to 10 | 0.0001 to 10 |  |  | 0.0001 to 10 | 0.0001 to 10 |  |  |  | 
12 | OC(c1c2c(cc3cn[nH]c13)CC2)C(F)(F)C1CCOCC1 (stereo not shown) [Compound P-0278, 1-(5,6-dihydro-1H-cyclobuta[f]indazol-7-yl)-2,2-difluoro-2-(tetrahydro-2H-pyran-4-yl)ethan-1-ol] | 0.0001 to 10 | 0.0001 to 10 |  |  | 0.0001 to 10 | > 10 |  |  |  | 
13 | CC(C)(C1CCN(C(=O)Nc2ccc(C#N)cc2)CC1)[C@H](O)c1c(F)c(Cl)cc2cn[nH]c12 [Compound P-0503, (S)-4-(1-(5-chloro-6-fluoro-1H-indazol-7-yl)-1-hydroxy-2-methylpropan-2-yl)-N-(4-cyanophenyl) piperidine-1-carboxamide] | 0.0001 to 10 | 0.0001 to 10 | 0.0001 to 10 | 0.0001 to 10 |  |  |  |  |  | 
14 | CC(C)(C(O)c1cc(Cl)cc2cn[nH]c12)[C@@H]1C[C@H]2CC[C@@H](C1)N2S(C)(=O)=O (stereo partly drawn) [Compound P-0272, 1-(5-chloro-1H-indazol-7-yl)-2-methyl-2-((1R,3s,5S)-8-(methylsulfonyl)-8-azabicyclo[3.2.1]octan-3-yl)propan-1-ol] | 0.0001 to 10 | 0.0001 to 10 |  |  | 0.0001 to 10 | 0.0001 to 10 |  |  |  | 
15 | CC(C)(C)OC(=O)N1CCC(C(F)(F)C(O)c2cc(Cl)cc3cn[nH]c23)CC1 (stereo not shown) [Compound P-0469, tert-butyl 4-(2-(5-chloro-1H-indazol-7-yl)-1,1-difluoro-2-hydroxyethyl) piperidine-1-carboxylate] | 0.0001 to 10 | 0.0001 to 10 | 0.0001 to 10 | 0.0001 to 10 |  |  |  |  |  | 
16 | CC(C)(C1CCN(C(=O)NC2CCC2)CC1)[C@H](O)c1cc(Cl)cc2cn[nH]c12 [Compound P-0552, (S)-4-(1-(5-chloro-1H-indazol-7-yl)-1-hydroxy-2-methylpropan-2-yl)-N-cyclobutylpiperidine-1-carboxamide] | 0.0001 to 10 | 0.0001 to 10 | 0.0001 to 10 | 0.0001 to 10 |  |  |  |  |  | 
17 | OC(c1c(Cl)c(Cl)cc2cn[nH]c12)C1CCC1 (stereo not shown) [Compound P-0237, cyclobutyl(5,6-dichloro-1H-indazol-7-yl)methanol] | 0.0001 to 10 | 0.0001 to 10 |  |  | 0.0001 to 10 | 0.0001 to 10 |  |  |  | 
18 | OC1(c2cc(Cl)cc3[nH]ncc23)CC2(CCOCC2)C1 [Compound P-0372, 2-(6-chloro-1H-indazol-4-yl)-7-oxaspiro[3.5] nonan-2-ol] | > 200 | 0.0001 to 10 |  |  | 0.0001 to 10 | > 10 |  |  |  | 
19 | CC(C)(C1CCN(C(=O)NCC(F)(F)F)CC1)[C@H](O)c1cc(Cl)cc2cn[nH]c12 [Compound P-0562, (S)-4-(1-(5-chloro-1H-indazol-7-yl)-1-hydroxy-2-methylpropan-2-yl)-N-(2,2,2-trifluoroethyl) piperidine-1-carboxamide] | 0.0001 to 10 | 0.0001 to 10 | 0.0001 to 10 | 0.0001 to 10 |  |  |  |  |  | 
20 | CC(C)(C1CCN(C(=O)NCCC(F)(F)F)CC1)[C@H](O)c1cc(Cl)cc2cn[nH]c12 [Compound P-0561, (S)-4-(1-(5-chloro-1H-indazol-7-yl)-1-hydroxy-2-methylpropan-2-yl)-N-(3,3,3-trifluoropropyl) piperidine-1-carboxamide] | 0.0001 to 10 | 0.0001 to 10 | 0.0001 to 10 | 0.0001 to 10 |  |  |  |  |  | 
21 | OC(c1cc(Cl)cc2cn[nH]c12)C1CCCCC1 (stereo not shown) [drawing 810] |  |  |  |  |  |  | 0.05 | 0.17 | 0.23 | 1.2
22 | CC(C)CC(=O)N1CCC(C(C)(C)[C@H](O)c2cc(Cl)cc3cn[nH]c23)CC1 [Compound P-0545, (S)-1-(4-(1-(5-chloro-1H-indazol-7-yl)-1-hydroxy-2-methylpropan-2-yl)piperidin-1-y1)-3-methylbutan-1-one] | 0.0001 to 10 | 0.0001 to 10 | 0.0001 to 10 | 0.0001 to 10 |  |  |  |  |  | 
